Experimental data: PMC3917281, “Identification and Biochemical Characterization of Halisulfate 3 and Suvanine as Novel Inhibitors of Hepatitis C Virus NS3 Helicase from a Marine Sponge” (Marine Drugs, 2014)

Experiments:
HCV NS3 helicase [1] = biological target: T1, HCV NS3 helicase (Hepatitis C virus genotype 1a, UniProt P27958); test: Gel-based HCV NS3 helicase assay; type: biochemical; details: 0–100 µM inhibitor
T1 construct: The full-length HCV NS3 protein with serine protease and NTPase/helicase activities was expressed and purified as described previously; made in house
T1 sequence (P27958 1027-1657): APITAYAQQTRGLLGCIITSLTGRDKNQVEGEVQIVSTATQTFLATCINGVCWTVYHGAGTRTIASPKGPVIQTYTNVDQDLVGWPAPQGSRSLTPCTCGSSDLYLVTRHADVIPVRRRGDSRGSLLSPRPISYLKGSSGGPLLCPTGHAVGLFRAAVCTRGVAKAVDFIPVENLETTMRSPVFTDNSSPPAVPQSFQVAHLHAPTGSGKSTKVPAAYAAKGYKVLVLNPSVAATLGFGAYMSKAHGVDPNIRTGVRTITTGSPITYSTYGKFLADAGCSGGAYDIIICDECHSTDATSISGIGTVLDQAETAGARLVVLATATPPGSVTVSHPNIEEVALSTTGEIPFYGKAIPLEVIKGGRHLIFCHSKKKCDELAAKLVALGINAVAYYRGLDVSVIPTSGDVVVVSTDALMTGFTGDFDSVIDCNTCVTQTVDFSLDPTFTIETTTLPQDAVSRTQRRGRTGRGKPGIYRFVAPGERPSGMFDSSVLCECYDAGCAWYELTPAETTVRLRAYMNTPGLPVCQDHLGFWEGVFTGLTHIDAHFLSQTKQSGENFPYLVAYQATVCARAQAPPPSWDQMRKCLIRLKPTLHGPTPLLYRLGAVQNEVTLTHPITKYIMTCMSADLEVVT
Description: A gel-based helicase assay was performed on HCV NS3 helicases using an Alexa Fluor 488-labeled dsRNA strand and capture strand with the same nucleic acid sequences described in Section 3.2. The dsRNA substrate was prepared by annealing the 5′ Alexa Fluor 488-labeled strand (5′-[…]-3′) to the complementary strand (5′-[…]-3′) at a 1:2 molar ratio. The same capture strand described in Section 3.2 was used. All nucleic acid strands were purchased from Japan Bio Services (Saitama, Japan). The reaction mixture for HCV NS3 helicase contained the same components as described in Section 3.2, with increasing concentrations of hal3 or suvanine in a reaction volume of 20 µL. The reaction was started by the addition of HCV NS3 helicase, and performed at 37 °C for 60 min using a GeneAmp PCR System 2700 (Applied Biosystems, Foster City, CA, USA). […] The helicase activity was calculated as the ratio of the signal intensity derived from ssRNA in the sample containing inhibitor to that in the control sample containing DMSO vehicle instead of inhibitor.

NS3 ATPase activity = biological target: T2, NS3 ATPase activity (Hepatitis C virus genotype 1a, UniProt P27958); test: ATPase assay ([γ-32P] ATP hydrolysis, thin-layer chromatography); type: biochemical; details: poly(U) RNA, 0–100 µM inhibitor
T2 construct: The full-length HCV NS3 protein with serine protease and NTPase/helicase activities was expressed and purified as described previously; made in house
T2 sequence (P27958 1027-1657): as above
Description: NS3 ATPase activity was determined directly by monitoring [γ-^32P] ATP hydrolysis by thin-layer chromatography, as described previously. The reaction mixture contained 25 mM MOPS-NaOH (pH 7.0), 1 mM dithiothreitol, 5 mM MgCl2, 5 mM CaCl2, 1 mM [γ-^32P] ATP (Muromachi Yakuhin, Tokyo, Japan), 300 nM NS3, 0.1 µg/µL poly (U) ssRNA (Sigma-Aldrich, St. Louis, MO, USA), and increasing concentrations of hal3 or suvanine in a volume of 10 µL. The reaction was conducted at 37 °C for 10 min, and stopped by the addition of 10 mM EDTA. Two microliters of each reaction mixture was then spotted onto a polyethyleneimine cellulose sheet (Merck, Darmstadt, Germany) and developed in 0.75 M LiCl/1 M formic acid solution for 20 min. The cellulose sheet was dried, and the released [γ-^32P] phosphoric acid was visualized using an Image Reader FLA-9000 and quantified using Multi Gauge software V 3.11 (Fujifilm, Tokyo, Japan). ATPase activity was calculated as the ratio of the signal intensity derived from the released Pi in the sample containing inhibitor to that in the control sample containing DMSO vehicle instead of inhibitor.

NS3 RNA binding activity = biological target: T3, NS3 RNA binding activity (Hepatitis C virus genotype 1a, UniProt P27958); test: RNA binding assay (gel mobility shift); details: 32P-labeled ssRNA, 0–100 µM inhibitor
T3 construct: The full-length HCV NS3 protein with serine protease and NTPase/helicase activities was expressed and purified as described previously; made in house
T3 sequence (P27958 1027-1657): as above
Description: NS3 RNA binding activity was determined by gel mobility shift assay, as described previously. The ssRNA (5′-[…]-3′) synthesized by Gene Design (Osaka, Japan) was labeled at the 5′-end with [γ-^32P] ATP (Muromachi Yakuhin, Tokyo, Japan) using T4 polynucleotide kinase (Toyobo, Osaka, Japan) at 37 °C for 60 min, and purified using the phenol-chloroform extraction method. The reaction mixture contained 30 mM Tris-HCl (pH 7.5), 100 mM NaCl, 2 mM MgCl2, 1 mM dithiothreitol, 20 U RNasin Plus (Promega), 300 nM NS3, 0.1 nM ^32P-labeled ssRNA, and increasing concentrations of inhibitor in a volume of 20 µL. The reaction was performed at room temperature for 15 min. An equal volume of a dye solution containing 0.025% bromophenol blue and 10% glycerol in 0.5× TBE was then added to each reaction mixture, and samples were loaded onto a 6% native-polyacrylamide gel. The labeled RNA bands were visualized using an Image Reader FLA-9000 and quantified using Multi Gauge software V 3.11 (Fujifilm, Tokyo, Japan). RNA binding activity was calculated as the ratio of the signal intensity derived from the NS3-ssRNA complex in the sample containing hal3 or suvanine to that in the control sample containing DMSO vehicle rather than inhibitor.

DENV NS3 helicase = biological target: T4, DENV NS3 helicase (Dengue virus type 2, UniProt P29990); test: Gel-based DENV NS3 helicase assay; type: biochemical; details: in the presence of 100 µM of each inhibitor
T4 construct: made in house
T4 sequence (P29990 1476-2093): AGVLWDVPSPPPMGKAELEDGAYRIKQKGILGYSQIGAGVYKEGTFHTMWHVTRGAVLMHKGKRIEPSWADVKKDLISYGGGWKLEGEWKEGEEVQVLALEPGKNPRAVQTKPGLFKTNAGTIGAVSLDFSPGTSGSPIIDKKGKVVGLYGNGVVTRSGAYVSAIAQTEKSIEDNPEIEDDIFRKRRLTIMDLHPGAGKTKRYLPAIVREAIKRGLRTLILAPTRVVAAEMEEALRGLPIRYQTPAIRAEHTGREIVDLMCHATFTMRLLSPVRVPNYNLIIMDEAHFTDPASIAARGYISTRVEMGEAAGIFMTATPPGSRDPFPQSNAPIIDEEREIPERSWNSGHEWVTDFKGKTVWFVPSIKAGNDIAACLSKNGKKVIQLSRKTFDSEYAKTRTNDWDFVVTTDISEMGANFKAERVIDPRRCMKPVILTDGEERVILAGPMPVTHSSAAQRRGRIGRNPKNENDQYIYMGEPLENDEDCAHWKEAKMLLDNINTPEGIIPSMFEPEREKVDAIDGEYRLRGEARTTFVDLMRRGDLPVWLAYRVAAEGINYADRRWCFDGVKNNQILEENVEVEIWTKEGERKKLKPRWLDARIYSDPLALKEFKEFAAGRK
Description: A gel-based helicase assay was performed using DENV NS3 helicases, and the Alexa Fluor 488-labeled dsRNA strand and capture strand with the same nucleic acid sequences described in the Section 3.3. DENV NS3 helicase requires a single stranded 3′ overhang to unwind dsRNA substrates in the 3′ to 5′ direction; therefore, the substrate specificities of the DENV and HCV NS3 helicases are the same. The reaction mixture contained 50 mM Tris-HCl (pH 7.4), 1 mM DTT, 0.5% Tween 20, 0.25 µg/mL BSA, 2 mM MgCl2, 4 U RNasin (Promega), 5 mM ATP, 50 nM dsRNA substrate, 300 nM capture strand, an inhibitor, and 240 nM DENV NS3 in a total volume of 20 µL. DENV NS3 helicase was prepared as described previously. The reaction was started by the addition of DENV NS3 helicase, and was performed at 37 °C for 60 min using a GeneAmp PCR System 2700 (Applied Biosystems, Foster City, CA, USA). […] The helicase activity was calculated as the ratio of the signal intensity from ssRNA in the sample containing inhibitor to that in the control sample containing DMSO vehicle instead of inhibitor.

HCV NS3/4A protease = biological target: T5, HCV NS3/4A protease (Hepatitis C virus genotype 1a, UniProt P27958); test: Fluorescence NS3 serine protease assay (FRET); type: biochemical
T5 construct: NS3 protein with a two-fold excess of the NS4A cofactor peptide Pep4AK was prepared in 1× assay buffer; made in house
T5 sequence (P27958 1027-1657): as the sequence (P27958 1027-1657) above
Description: A fluorescence NS3 serine protease assay, based on fluorescence resonance energy transfer, was conducted using reagents provided in a SensoLyte™ 520 HCV protease assay kit (AnaSpec, San Jose, CA, USA), as described previously. Briefly, NS3 protein with a two-fold excess of the NS4A cofactor peptide Pep4AK was prepared in 1× assay buffer provided with the kit. HCV NS3/4A protease was mixed with increasing concentrations of inhibitor, and incubated at 37 °C for 15 min. The reaction was started by the addition of 5-FAM/QXL 520 substrate in a 20 µL total reaction volume containing 240 nM HCV NS3/4A protease and increasing concentrations of hal3 or suvanine. Reactions were then incubated at 37 °C for 120 min on a LightCycler 1.5 (Roche Diagnostics, Basel, Switzerland), and the fluorescence intensity was recorded every min for 120 min. NS3 serine protease activity was calculated as the initial reaction velocity in the sample containing inhibitor relative to the control sample containing DMSO vehicle rather than inhibitor.

HCV NS3 helicase [2] = biological target: T1, HCV NS3 helicase; test: PET-based fluorescence helicase assay; type: biochemical
Description: The PET-based fluorescence helicase assay was performed as described previously. The dsRNA substrate was prepared by annealing the 5′ BODIPY FL-labeled fluorescence strand (5′-[…]-3′) to the quencher strand (5′-[…]-3′) at a 1:2 molar ratio. The dsRNA substrate contains the 3′-overhang that is necessary for the NS3 helicase to bind RNA prior to duplex unwinding. The capture strand (5′-[…]-3′), which is complementary to the quencher strand, prevents the unwound duplexes from reannealing. None of the capture, quencher, or fluorescence strands are self-complementary. The fluorescence strand was purchased from J-Bio 21 Corporation (Tokyo, Japan), and was labeled with BODIPY FL at the 5′-end via an aminohexylphosphate linker with a six-carbon spacer. […]
The reaction was started by the addition of HCV NS3 helicase, and was performed at 37 °C for 30 min using a LightCycler 1.5 (Roche Diagnostics, Basel, Switzerland). The fluorescence intensity was recorded every 5 s from 0 to 5 min, and then every 30 s from 5 to 30 min. Helicase activity was calculated as the initial reaction velocity relative to control (in the absence of a marine extract, but presence of DMSO vehicle). The IC50 was calculated using KaleidaGraph (Synergy Software, Reading, PA, USA) by fitting plots of % activity vs. [I] using Equation (1) unless otherwise noted: [drawing 1] […]

heat shock protein 60 = details: cited from earlier work
farnesoid-X-receptor = system: farnesoid-X-receptor; design: method as in PMID 23656455; details: mammalian bile acid sensor; cited from earlier work
serine protease = details: cited from earlier work

C[C@@H]1CCC2=C(CCCC2(C)C)[C@@]1(C)CC[C@H](CCCc1ccoc1)COS(=O)(=O)[O-].[Na+] [hal3, halisulfate 3]
helicase-catalyzed RNA unwinding (HCV NS3 helicase [1]): inhibited helicase-catalyzed RNA unwinding in a dose-dependent manner
IC50 (NS3 ATPase activity): 8 µM
IC50 (NS3 RNA binding activity): 8 µM
DENV NS3 helicase activity (DENV NS3 helicase): did not abolish
IC50 (HCV NS3/4A protease): 14 µM
IC50 (HCV NS3 helicase [2]): 4 µM

CC1(C)CCC[C@]2(C)[C@H]3CC/C(=C\OS(=O)(=O)[O-])[C@H](CCc4ccoc4)[C@@]3(C)CC[C@@H]12.[Na+] [suvanine]
helicase-catalyzed RNA unwinding (HCV NS3 helicase [1]): inhibited helicase-catalyzed RNA unwinding in a dose-dependent manner
IC50 (NS3 ATPase activity): 7 µM
interference with heat shock protein 60 (heat shock protein 60): interferes with
IC50 (NS3 RNA binding activity): 3 µM
DENV NS3 helicase activity (DENV NS3 helicase): did not abolish
farnesoid-X-receptor antagonism (farnesoid-X-receptor): antagonist
serine protease inhibition (serine protease): serine protease inhibitor
IC50 (HCV NS3/4A protease): 34 µM
IC50 (HCV NS3 helicase [2]): 3 µM
